From EP0793481B1, “COSMETIC COMPOSITION CONTAINING HYDROXY ALKANOATE DERIVATIVES” (priority 1993, dated 1995)
Where two headings read alike, the source gives them in different places. One block for each compound: values may come before it.

What was measured:
[1] = Lactic acid on tape strips from volar forearm after lauryl lactate dispersion; format: in vivo, human; set-up: unit not given here; conditions: 2% by weight dispersion in water, 100 µl
Procedure: This dispersion was tested on the volar forearm of a human volunteer. 100 µl of the dispersion was applied to each of three areas (15cm^2) on the volar forearm, rubbed in and allowed to dry. Ten Desquarne tape strips were taken fropm a fourth, untreated area. After 1 hour ten tape strips were taken from one treated area. Ten tape strips were taken from the other treated areas after 3 and 8 hours respectively. The tape strips taken after 1 hour and 3 hours were stored at room temperature for the rest of the 8 hour period, allowing enzymic hydrolysis.
The amount of lactic acid on each tape strip was determined, by the procedure quoted in Example 1. […] Moreover, this is at all levels, indicating penetration of the lactate ester into the skin where it is hydrolysed.

[2] = Measurement of skin conductivity (SKICON 200) as index of skin moisturisation, panel of volunteers; format: in vivo, human; conditions: for mean adjusted SKICON 200 readings: 100mM in buffer (3.0%), 100µl, relative to pretreatment reading
Source text: The topical application to skin of hydroxyalkanoate derivatives improves the retention of moisture by the skin and/or increases the level of moisture in the skin to a significant extent. […] An increase in skin conductivity is thus used as an index of increase in skin moisturisation.
This method measures the cumulative effect of applying products to the skin, on the conductivity of the superficial stratum corneum.
It is well established that the conductivity of the skin, as measured by placing the probe of a suitable conductivity meter in contact with the skin, is proportional to the water content of the outermost strata of the epidermis. The measurement of skin conductivity can therefore be used to indicate the ability of a topically applied product to hydrate the epidermis: see D. van Neste, J. Dermatol Sci., 2, p119 - 124, (1991), "Comparative Study of Normal and Rough Human Skin Hydration in vivo: evaluation with four different instruments". The method is widely used and accepted as indicative of product skin moisturisation efficacy.
The device for measuring skin conductivity employed in this test is the SKICON 200, a skin hygrometer available from IBS Co.
A small panel of volunteers, greater than six in number and preferably from 12 to 20, is recruited for the test.
Two sites 3 x 4cm are marked onto each volar forearm at least 6cm from either the wrist or elbow and with a separation of at least 6cm. Each site is treated once a day for five consecutive days with 100µl of a single treatment material. Allocation of material to left or right arm, upper or lower site is varied to avoid site effects. A total of two treatment materials can be used, one site per panellist remaining untreated for the entire five day period.
On the first day of the test, panellists are allowed to equilibrate in a climate controlled environment (20°C 70% RH for 15 minutes with no significant sensory stimuli). Eight conductivity measurements are taken per site using random positions within the test site; these represent the baseline. 100µl of treatment material is then applied and gently rubbed into the test site for each of the three treatment sites. Further four sets of eight readings from the treatment sites are then taken one, two and four hours after application, again using the equilibration period in a climate controlled environment. This procedure is repeated on the following four days.
The effect of each treatment is then assessed using the following method: adjusted effect =(Mean treatment site reading)/(Mean pretreatment site reading) [formula]
This value is calculated for each treatment, for each timepoint on each day of treatment for each panellist, resulting in a final mean value for the adjusted effect for the entire panel also being obtained by calculation.
The following treatments were applied in this test • 1. 5mM Sorensons phosphate buffer pH 7.00 + 2% Nipagin • 2. 100mM Sodium dodecoyl lactylate in buffer (a concentration of 3.0%) • 3. No treatment
The results are shown in the table below which records the mean adjusted SKICON 200 readings (i.e. proportional to initial skin conductivity = moisturisation) at hourly periods up to 4 hours.

[3] = Penetration of acyl lactylates: serial tape stripping of skin and lactate assay (Sigma 735-10) of the tapes; conditions: result in words; 10% by weight solutions, four hours
Procedure: The penetration of acyl lactylate and lactic acid in this manner can be determined by serial tape stripping and by biochemical assay of free lactate from skin cells adhering to the tape.
The methodology employed using pig skin is as follows:
The tape employed in this test is Desquame tape available from Diastron. Following topical application to skin of acyl lactylate, pieces of this tape are applied to the skin and then removed, and skin cells are assayed for lactate using Sigma 735-10 lactate assay kit. Thus, by repeated stripping of the same area of skin the degree of penetration of the topically applied acyl lactylate and its cleavage by epidermal esterases can be determined.
10% by weight solutions of sodium lactate (control) and of five different sodium acyl lactylates having from C8 to C18 acyl chains, were prepared in pH 7.0 Sorenson's phosphate buffer, 5 mM. Seven pieces of full thickness skin, taken from pig ear, were cut to 4 x 4cm and pinned out. 100 µl aliquots of the 6 test solutions were applied to the entire surface of six pieces of skin, the remaining piece of skin was used as a no-treatment control. […]
Each tape was placed in a labelled 1ml tube and 800µl of 5.00mM phosphate buffer, pH 7.00 was added to each tube. […] The buffer reagent mixture from each tube was then transferred to microcuvettes and the absorbtion of the solutions measured at 540nm using a spectrophotometer.

[4] = Hydrolysis in skin: thin-layer chromatography of radiolabel extracted from tape strips; format: in vitro ADME, pig; conditions: after six hours; for metabolised at 6 h / remaining at 6 h: pig, ear skin, topical or ocular, mean of three repeats; for metabolised at 6 h: spot of hydrolysis products, read-out: % of total label, peak 1; for remaining at 6 h: spot of the applied compound itself, read-out: % of total label, peak 2
Procedure: In a similar experiment nine tape strips were taken after six hours. The first three strips were incubated in 3ml of phosphate buffer. The next three strips and the final three strips were likewise incubated. After 30 minutes the buffer solutions were spotted onto a thin-layer chromatography plate (bearing silica gel as the stationary phase).
The plate was eluted with 80:20:2 hexane:ether:acetic acid mixture. The spots on the plate were detected and quantified by their emitted radiation. […] The results (mean of three repeats) were:
The results of thin layer chromatography, showing the extent of hydrolysis were: […]

[5] = Deposition of radiolabelled lactylate from diluted detergent composition after rinse-off, scintillation count of tape strips; format: in vitro ADME, pig; conditions: result in words, 0.12M, 100 µl, left for 10 seconds and rinsed off
Procedure: Radiolabelled sodium lauroyl lactylate, as used in Example 2, was incorporated into a detergent composition containing
This solution was diluted with about four times its own volume of water, so that the concentration of sodium lauroyl lactylate was 0.12M.
100 µl quantities of this diluted solution were applied to test pieces of pig ear, left for 10 seconds and rinsed off. Excess water was removed with cotton wool, and nine tape strips were taken. All the tape strips were placed in a vial with phosphate buffer and scintillation fluid. The radiolabel content was measured using a scintillation counter.

amount of lactic acid on each tape strip ([1]; 1 Hour, Tape No 1): 0.289 | amount of lactic acid on each tape strip ([1]; 1 Hour, Tape No 2): 0.361 | amount of lactic acid on each tape strip ([1]; 1 Hour, Tape No 3): 0.217 | amount of lactic acid on each tape strip ([1]; 1 Hour, Tape No 4): 0.124 | amount of lactic acid on each tape strip ([1]; 1 Hour, Tape No 5): 0.192 | amount of lactic acid on each tape strip ([1]; 1 Hour, Tape No 6): 0.201 | amount of lactic acid on each tape strip ([1]; 1 Hour, Tape No 7): 0.179 | amount of lactic acid on each tape strip ([1]; 1 Hour, Tape No 8): 0.177 | amount of lactic acid on each tape strip ([1]; 1 Hour, Tape No 9): 0.211 | amount of lactic acid on each tape strip ([1]; 1 Hour, Tape No 10): 0.169 | amount of lactic acid on each tape strip ([1]; 3 Hours, Tape No 1): 0.282 | amount of lactic acid on each tape strip ([1]; 3 Hours, Tape No 2): 0.250 | amount of lactic acid on each tape strip ([1]; 3 Hours, Tape No 3): 0.252 | amount of lactic acid on each tape strip ([1]; 3 Hours, Tape No 4): 0.262 | amount of lactic acid on each tape strip ([1]; 3 Hours, Tape No 5): 0.485 | amount of lactic acid on each tape strip ([1]; 3 Hours, Tape No 6): 0.487 | amount of lactic acid on each tape strip ([1]; 3 Hours, Tape No 7): 0.271 | amount of lactic acid on each tape strip ([1]; 3 Hours, Tape No 8): 0.246 | amount of lactic acid on each tape strip ([1]; 3 Hours, Tape No 9): 0.254 | amount of lactic acid on each tape strip ([1]; 3 Hours, Tape No 10): 0.269 | amount of lactic acid on each tape strip ([1]; 8 Hours, Tape No 1): 0.260 | amount of lactic acid on each tape strip ([1]; 8 Hours, Tape No 2): 0.210 | amount of lactic acid on each tape strip ([1]; 8 Hours, Tape No 3): 0.250 | amount of lactic acid on each tape strip ([1]; 8 Hours, Tape No 4): 0.222 | amount of lactic acid on each tape strip ([1]; 8 Hours, Tape No 5): 0.259 | amount of lactic acid on each tape strip ([1]; 8 Hours, Tape No 6): 0.230 | amount of lactic acid on each tape strip ([1]; 8 Hours, Tape No 7): 0.241 | amount of lactic acid on each tape strip ([1]; 8 Hours, Tape No 8): 0.234 | amount of lactic acid on each tape strip ([1]; 8 Hours, Tape No 9): 0.194 | amount of lactic acid on each tape strip ([1]; 8 Hours, Tape No 10): 0.449
Compound: CCCCCCCCCCCCOC(=O)C(C)O (centres unmarked) [Lauryl lactate]

Compound: CCCCCCCCCCCC(=O)OC(C)C(=O)O (centres unmarked) [Na Acyl Lactylate, Sodium dodecoyl lactylate]
mean adjusted SKICON 200 readings ([2]; T=0 Hr): 1.00 | mean adjusted SKICON 200 readings ([2]; T=1 Hr): 1.27 | mean adjusted SKICON 200 readings ([2]; T=2 Hr): 1.30 | mean adjusted SKICON 200 readings ([2]; T=4 Hr): 1.31 | moisturisation of the skin ([2]; result in words, compared with the buffer alone): significant moisturisation of the skin was achieved

Compound: CC(O)C(=O)O (centres unmarked) [G, sodium lactate, reference compound]
penetration into the stratum corneum [3]: virtually no penetration occurs

metabolised at 6 h ([4]; Tapes 1-3): 13.1% | remaining at 6 h ([4]; Tapes 1-3): 8.9% | metabolised at 6 h ([4]; Tapes 4-6): 35.1% | remaining at 6 h ([4]; Tapes 4-6): 64.9% | metabolised at 6 h ([4]; Tapes 7-9): 45.2% | remaining at 6 h ([4]; Tapes 7-9): 54.8%
Compound: CCCCCCCCCCCC(=O)OC(C)C(=O)O (centres unmarked) [Lauroyl lactylate, Sodium lauroyl lactylate]
hydrolysis in the skin ([4]; result in words): had occurred in each instance and had occurred to the greatest extent with the material which had penetrated furthest into the skin | deposition onto the skin [5]: a small proportion of the radiolabelled lactylate had deposited onto the skin
